# Test results published in article PMC6438780 (Xenobiotica; the fate of foreign compounds in biological …, 2018).
# Like-named read-outs stand apart in the source and are kept apart here.
# Legend:
# human liver microsomes [1] = test: Effects of CYP-specific inhibitors; details: liver sample HH54 microsomes
# [2] = tested on: liver microsomes of humans; details: ref data sheets provided by the manufacturer, cited from earlier work
# human liver microsomes [3] = tested on: human liver microsomes
# human liver microsomes [4] = test: Oxidation of flavanone and flavone by human liver microsomes; details: P450s and human liver microsomes, whole assay system
# CYP2A6.1 = target: T1, CYP2A6.1 (Homo sapiens, UniProt P11509); details: 20 min, 60 µM
# T1 sequence (P11509 1-494): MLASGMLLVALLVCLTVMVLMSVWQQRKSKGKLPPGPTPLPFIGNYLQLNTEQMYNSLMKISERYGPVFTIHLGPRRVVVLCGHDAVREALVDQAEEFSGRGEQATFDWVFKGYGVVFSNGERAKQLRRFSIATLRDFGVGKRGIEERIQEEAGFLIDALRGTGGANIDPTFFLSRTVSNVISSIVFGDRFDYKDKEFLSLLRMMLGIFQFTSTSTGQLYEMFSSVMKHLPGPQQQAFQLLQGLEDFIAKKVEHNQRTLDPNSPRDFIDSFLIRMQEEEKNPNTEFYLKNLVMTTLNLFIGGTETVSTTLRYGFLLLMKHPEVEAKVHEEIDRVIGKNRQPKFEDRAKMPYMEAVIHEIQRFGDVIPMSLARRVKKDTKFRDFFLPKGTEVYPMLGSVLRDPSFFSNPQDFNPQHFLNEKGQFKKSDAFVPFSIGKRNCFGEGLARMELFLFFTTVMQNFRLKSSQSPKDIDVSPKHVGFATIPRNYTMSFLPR
structure (smiles),measurement,setting,value
"O=c1cc(-c2ccccc2)oc2c1ccc1ccccc12 [ANF, α-naphthoflavone]","effect on formation of 7OHFva, 3´OHFva, 4´OHFva OHFvaM5, and OHFvaM6 (from flavanone)",human liver microsomes [1]; 60 µM flavanone,inhibited
same,"effect on formation of OHFM11, diOHFM3, and diOHFM5 (from flavone)",human liver microsomes [1]; 60 µM flavone,inhibited
CC(=O)O[C@H]1C(=O)[C@@]2(C)[C@H]([C@H](OC(=O)c3ccccc3)[C@]3(O)C[C@H](OC(=O)[C@H](O)[C@@H](NC(=O)c4ccccc4)c4ccccc4)C(C)=C1C3(C)C)[C@]1(OC(C)=O)CO[C@@H]1C[C@@H]2O [Paclitaxel],Paclitaxel 6a-hydroxylation,[2]; human sample HG95,0.093 nmol/min/mg
same,Paclitaxel 6a-hydroxylation,[2]; human sample HH2,0.13 nmol/min/mg
same,Paclitaxel 6a-hydroxylation,[2]; human sample HH47,0.13 nmol/min/mg
same,Paclitaxel 6a-hydroxylation,[2]; human sample HH54,0.21 nmol/min/mg
CCOc1ccc(NC(C)=O)cc1 [Phenacetin],Phenacetin O-deethylation,[2]; human sample HG95,0.26 nmol/mg/min
same,Phenacetin O-deethylation,[2]; human sample HH2,0.51 nmol/mg/min
same,Phenacetin O-deethylation,[2]; human sample HH47,0.36 nmol/mg/min
same,Phenacetin O-deethylation,[2]; human sample HH54,0.44 nmol/mg/min
CC[C@@]1(c2ccccc2)NC(=O)N(C)C1=O [S-Mephenytoin],S-Mephenytoin 4’-hydroxylation,[2]; human sample HG95,0.015 nmol/min/mg
same,S-Mephenytoin N-demethylation,[2]; human sample HG95,0.0070 nmol/min/mg
same,S-Mephenytoin 4’-hydroxylation,[2]; human sample HH2,0.020 nmol/min/mg
same,S-Mephenytoin N-demethylation,[2]; human sample HH2,0.010 nmol/min/mg
same,S-Mephenytoin 4’-hydroxylation,[2]; human sample HH47,0.0040 nmol/min/mg
same,S-Mephenytoin N-demethylation,[2]; human sample HH47,0.0065 nmol/min/mg
same,S-Mephenytoin 4’-hydroxylation,[2]; human sample HH54,0.026 nmol/min/mg
same,S-Mephenytoin N-demethylation,[2]; human sample HH54,0.0010 nmol/min/mg
C[C@]12CC[C@H]3[C@@H](CCC4=CC(=O)CC[C@@]43C)[C@@H]1CC[C@@H]2O [Testosterone],Testosterone 6β-hydroxylation,[2]; human sample HG95,0.64 nmol/mg/min
same,Testosterone 6β-hydroxylation,[2]; human sample HH2,0.78 nmol/mg/min
same,Testosterone 6β-hydroxylation,[2]; human sample HH47,4.1 nmol/mg/min
same,Testosterone 6β-hydroxylation,[2]; human sample HH54,4.9 nmol/mg/min
O=c1ccc2ccccc2o1 [coumarin],Coumarin 7-hydroxylation,[2]; human sample HG95,0.18 nmol/mg/min
same,Coumarin 7-hydroxylation,[2]; human sample HH2,no detectable
same,Coumarin 7-hydroxylation,[2]; human sample HH47,0.51 nmol/mg/min
same,Coumarin 7-hydroxylation,[2]; human sample HH54,2.5 nmol/mg/min
same,effect on formation of flavone (from flavanone),human liver microsomes [1]; 60 µM flavanone,inhibited
same,effect on 2´OHFva formation (from flavanone),"human liver microsomes [1]; 60 µM flavanone, low concentration of inhibitor",markedly decreased
same,"effect on formation of OHFM6, OHFM9, and diOHFM4 (from flavone)","human liver microsomes [1]; 60 µM flavone, low concentration of inhibitor",strongly inhibited
"O=C1CC(c2ccccc2)Oc2ccccc21 (stereo not drawn) [flavanone, Flavanone]",rate of formation of flavone from flavanone,human liver microsomes [3],0.15 nmol/min/nmol
O=c1cc(-c2ccccc2)oc2ccccc12 [flavone],enzymatic formation of 7OHF from flavone,human liver microsomes [4],did not detect
same,rate of formation of 5OHF from flavone,CYP2A6.1,~ 0.01 nmol/min/nmol P450
same,rate of formation of 6OHF from flavone,CYP2A6.1,0.11 min⁻¹
